In patent publication EP0804408B1, “NOVEL 4-SUBSTITUTED 2,6-DI-TERT-BUTYLPHENOL COMPOUNDS, PHARMACEUTICAL COMPOSITIONS CONTAINING SAME AND PREPARATION METHOD THEREFOR” (priority 1994, dated 1996):

Tested on: macrophages de lignée RAW264.7
Experiment: Toxicity test on RAW264.7 macrophages (crystal violet and neutral red staining)
Format: cell-based, murins
Settings: for DO/ml moyenne sur 4 puis ± écart type / Pourcentage de survie par rapport au témoin cellules en milieu seul: 24 h; for hautement toxique jusqu'à: final conclusion
Description: La toxicité de AVF1 pour les macrophages de lignée RAW264.7 (ATCC TIB 71) utilisés pour le test iNOS a été déterminée dans l'expérience préliminaire suivante :
Les macrophages de lignée RAW264.7 ont été distribués dans des séries de 4 puits dans une plaque à 96 puits à raison de 1,5 x 10^5/100 µl/ml dans du milieu de culture (D-NEM sans rouge de phénol, Gibco) additionné de 0,2 % d'antibiotique, 1% de L-glutamine et 5% de sérum de veau foetal décomplémenté (produits pour celuture cellulaire Eurobio).
Après 18 heures, différentes concentrations de raison […] de AVF1 ont été ajoutées sous 100 µl de façon à obtenir les concentrations finales de 10^0 à 10^-10%. Après 24 heures de culture supplémentaire, les cellules ont été observées au microscope et colorées selon deux techniques différentes permettant d'obtenir un pourcentage respectivement de cellules adhérentes au plastique (coloration au violet cristal) et de cellules vivantes (coloration au rouge neutre) : • Dans la première technique, les cellules sont lavées avec du PBS + Ca^2+ + Mg^2+ (Gibco) afin d'éliminer les éventuelles cellules mortes flottantes et de maintenir les cellules vivantes sur le plastique. Le colorant (1% de violet cristal, R.A.L. 20% de méthanol, Merck) est ajouté sous 50 µl/puits et laissé 20 minutes à température ambiante. Après plusieurs lavages doux en PBS + Ca^2+ + Mg^2+ , les plaques sont séchées à 37°C et 100 µl de SDS (Sigma, 1% en eau distillée) sont ajoutés par puits. La plaque est laissée 1 heure à température ambiante à l'abri de la lumière pour permettre la dissolution complète du lysat cellulaire. La plaque est ensuite lue au lecteur ELISA (Labsystems) à 550 nm après 15 secondes d'agitation. Le blanc de densité optique (OD) est fait sur une rangée de 8 cupules n'ayant reçu que 50 µl de la solution de violet cristal puis ayant été traitées comme les autres. • Dans la seconde technique, les cellules reçoivent 50 µl de rouge neutre à 0,3% (R.A.L.) qui est pinocyté par les macrophages vivants. Après 2 heures d'incubation, le milieu est enlevé et les cellules sont lavées doucement avec 200 µl de PBS + Ca^2+ + Mg^2+. Les cellules restantes sont ensuite lysées avec 100 µl de SDS et la plaque est mise à 4°C pendant 1 heure pour permettre un relargage complet du colorant. La plaque est ensuite lue au lecteur ELISA à 570 nm avec un filtre de référence de 630 nm après 15 secondes d'agitation. Le blanc de DO est fait sur une colonne de 8 cupules n'ayant reçu que le colorant puis ayant été traitées comme les autres.
Pour la réalisation de cet essai, AVF1 a été préparé de la façon suivante : 1 g a été dissout dans 5 ml de D-MEM sans rouge de phénol. Cette solution à 20% a été stérilisée sur 0,22 µm (Minisart, Sartorius), le pH contrôlé (7,5), aliquotée sous 1 ml et conservée à +4°C. Au moment de l'emploi, cette solution a été diluée afin d'obtenir les concentrations finales désirées.

[1] = ROUGE NEUTRE, second experiment, AVF1 1 10^-7 %
[2] = ROUGE NEUTRE, second experiment, AVF1 1 10^-8 %
[3] = ROUGE NEUTRE, second experiment, AVF1 1 10^-9 %
[4] = ROUGE NEUTRE, second experiment, AVF1 1 10^-10 %
[5] = ROUGE NEUTRE, second experiment, AVF1 5 10^-7 %
[6] = ROUGE NEUTRE, second experiment, AVF1 5 10^-8 %
[7] = ROUGE NEUTRE, second experiment, AVF1 5 10^-9 %
[8] = ROUGE NEUTRE, second experiment, AVF1 5 10^-10 %
[9] = ROUGE NEUTRE, second experiment, AVF1 10^-6 %
[10] = VIOLET CRISTAL, second experiment, AVF1 1 10^-7 %
[11] = VIOLET CRISTAL, second experiment, AVF1 1 10^-8 %
[12] = VIOLET CRISTAL, second experiment, AVF1 1 10^-9 %
[13] = VIOLET CRISTAL, second experiment, AVF1 1 10^-10 %
[14] = VIOLET CRISTAL, second experiment, AVF1 5 10^-7 %
[15] = VIOLET CRISTAL, second experiment, AVF1 5 10^-8 %
[16] = VIOLET CRISTAL, second experiment, AVF1 5 10^-9 %
[17] = VIOLET CRISTAL, second experiment, AVF1 5 10^-10 %
[18] = VIOLET CRISTAL, second experiment, AVF1 10^-6 %

SMILES: CC(C)(C)c1cc(C(=O)OCCOCCOCCOCCOCCOCCOCCOCCO)cc(C(C)(C)C)c1O [AVF1, 3,5-di-t-butyl-4-hydroxybenzoate d'octaoxyéthylèneglycol]
- n'est plus toxique à partir de (RAW 264.7 macrophages after 24 heures de culture, non-toxic from this concentration downwards): ≤ 10^-6%
- DO/ml moyenne sur 4 puis ± écart type (ROUGE NEUTRE, AVF1 0,5 %): 0 DO/ml
- Pourcentage de survie par rapport au témoin cellules en milieu seul (ROUGE NEUTRE, AVF1 0,5 %): 0%
- DO/ml moyenne sur 4 puis ± écart type (ROUGE NEUTRE, AVF1 1 10^-2 %): 0 DO/ml
- Pourcentage de survie par rapport au témoin cellules en milieu seul (ROUGE NEUTRE, AVF1 1 10^-2 %): 6%
- DO/ml moyenne sur 4 puis ± écart type (ROUGE NEUTRE, AVF1 1 10^-3 %): 0 DO/ml
- Pourcentage de survie par rapport au témoin cellules en milieu seul (ROUGE NEUTRE, AVF1 1 10^-3 %): 0%
- DO/ml moyenne sur 4 puis ± écart type (ROUGE NEUTRE, AVF1 1 10^-4 %): 0,010 ± 0,002 DO/ml
- Pourcentage de survie par rapport au témoin cellules en milieu seul (ROUGE NEUTRE, AVF1 1 10^-4 %): 1%
- DO/ml moyenne sur 4 puis ± écart type (ROUGE NEUTRE, AVF1 1 10^-5 %): 0,060 ± 0,034 DO/ml
- Pourcentage de survie par rapport au témoin cellules en milieu seul (ROUGE NEUTRE, AVF1 1 10^-5 %): 41%
- DO/ml moyenne sur 4 puis ± écart type (ROUGE NEUTRE, AVF1 1 %): 0 DO/ml
- Pourcentage de survie par rapport au témoin cellules en milieu seul (ROUGE NEUTRE, AVF1 1 %): 0%
- DO/ml moyenne sur 4 puis ± écart type (ROUGE NEUTRE, AVF1 5 10^-3 %): 0 DO/ml
- Pourcentage de survie par rapport au témoin cellules en milieu seul (ROUGE NEUTRE, AVF1 5 10^-3 %): 3%
- DO/ml moyenne sur 4 puis ± écart type (ROUGE NEUTRE, AVF1 5 10^-4 %): 0 DO/ml
- Pourcentage de survie par rapport au témoin cellules en milieu seul (ROUGE NEUTRE, AVF1 5 10^-4 %): 0%
- DO/ml moyenne sur 4 puis ± écart type (ROUGE NEUTRE, AVF1 5 10^-5 %): 0,023 ± 0,003 DO/ml
- Pourcentage de survie par rapport au témoin cellules en milieu seul (ROUGE NEUTRE, AVF1 5 10^-5 %): 16%
- DO/ml moyenne sur 4 puis ± écart type (ROUGE NEUTRE, AVF1 5 10^-6 %): 0,476 ± 0,034 DO/ml
- Pourcentage de survie par rapport au témoin cellules en milieu seul (ROUGE NEUTRE, AVF1 5 10^-6 %): 70%
- DO/ml moyenne sur 4 puis ± écart type [1]: 0,605 ± 0,024 DO/ml
- Pourcentage de survie par rapport au témoin cellules en milieu seul [1]: 95%
- DO/ml moyenne sur 4 puis ± écart type [2]: 0,601 ± 0,121 DO/ml
- Pourcentage de survie par rapport au témoin cellules en milieu seul [2]: 95%
- DO/ml moyenne sur 4 puis ± écart type [3]: 0,594 ± 0,083 DO/ml
- Pourcentage de survie par rapport au témoin cellules en milieu seul [3]: 93%
- DO/ml moyenne sur 4 puis ± écart type [4]: 0,609 ± 0,053 DO/ml
- Pourcentage de survie par rapport au témoin cellules en milieu seul [4]: 96%
- DO/ml moyenne sur 4 puis ± écart type [5]: 0,652 ± 0,089 DO/ml
- Pourcentage de survie par rapport au témoin cellules en milieu seul [5]: 100%
- DO/ml moyenne sur 4 puis ± écart type [6]: 0,575 ± 0,040 DO/ml
- Pourcentage de survie par rapport au témoin cellules en milieu seul [6]: 90%
- DO/ml moyenne sur 4 puis ± écart type [7]: 0,545 ± 0,015 DO/ml
- Pourcentage de survie par rapport au témoin cellules en milieu seul [7]: 86%
- DO/ml moyenne sur 4 puis ± écart type [8]: 0,573 ± 0,030 DO/ml
- Pourcentage de survie par rapport au témoin cellules en milieu seul [8]: 90%
- DO/ml moyenne sur 4 puis ± écart type [9]: 0,602 ± 0,059 DO/ml
- Pourcentage de survie par rapport au témoin cellules en milieu seul [9]: 95%
- DO/ml moyenne sur 4 puis ± écart type (VIOLET CRISTAL, AVF1 0,5 %): 0,118 ± 0,027 DO/ml
- Pourcentage de survie par rapport au témoin cellules en milieu seul (VIOLET CRISTAL, AVF1 0,5 %): 6%
- DO/ml moyenne sur 4 puis ± écart type (VIOLET CRISTAL, AVF1 1 10^-2 %): 0,118 ± 0,027 DO/ml
- Pourcentage de survie par rapport au témoin cellules en milieu seul (VIOLET CRISTAL, AVF1 1 10^-2 %): 6%
- DO/ml moyenne sur 4 puis ± écart type (VIOLET CRISTAL, AVF1 1 10^-3 %): 0,117 ± 0,027 DO/ml
- Pourcentage de survie par rapport au témoin cellules en milieu seul (VIOLET CRISTAL, AVF1 1 10^-3 %): 8%
- DO/ml moyenne sur 4 puis ± écart type (VIOLET CRISTAL, AVF1 1 10^-4 %): 0,180 ± 0,016 DO/ml
- Pourcentage de survie par rapport au témoin cellules en milieu seul (VIOLET CRISTAL, AVF1 1 10^-4 %): 9%
- DO/ml moyenne sur 4 puis ± écart type (VIOLET CRISTAL, AVF1 1 10^-5 %): 0,259 ± 0,033 DO/ml
- Pourcentage de survie par rapport au témoin cellules en milieu seul (VIOLET CRISTAL, AVF1 1 10^-5 %): 12%
- DO/ml moyenne sur 4 puis ± écart type (VIOLET CRISTAL, AVF1 1 %): 0,172 ± 0,030 DO/ml
- Pourcentage de survie par rapport au témoin cellules en milieu seul (VIOLET CRISTAL, AVF1 1 %): 8%
- DO/ml moyenne sur 4 puis ± écart type (VIOLET CRISTAL, AVF1 5 10^-3 %): 0,061 ± 0,017 DO/ml
- Pourcentage de survie par rapport au témoin cellules en milieu seul (VIOLET CRISTAL, AVF1 5 10^-3 %): 3%
- DO/ml moyenne sur 4 puis ± écart type (VIOLET CRISTAL, AVF1 5 10^-4 %): 0,156 ± 0,010 DO/ml
- Pourcentage de survie par rapport au témoin cellules en milieu seul (VIOLET CRISTAL, AVF1 5 10^-4 %): 7%
- DO/ml moyenne sur 4 puis ± écart type (VIOLET CRISTAL, AVF1 5 10^-5 %): 0,216 ± 0,034 DO/ml
- Pourcentage de survie par rapport au témoin cellules en milieu seul (VIOLET CRISTAL, AVF1 5 10^-5 %): 10%
- DO/ml moyenne sur 4 puis ± écart type (VIOLET CRISTAL, AVF1 5 10^-6 %): 1,129 ± 0,069 DO/ml
- Pourcentage de survie par rapport au témoin cellules en milieu seul (VIOLET CRISTAL, AVF1 5 10^-6 %): 54%
- DO/ml moyenne sur 4 puis ± écart type [10]: 0,960 ± 0,070 DO/ml
- Pourcentage de survie par rapport au témoin cellules en milieu seul [10]: 86%
- DO/ml moyenne sur 4 puis ± écart type [11]: 1,128 ± 0,043 DO/ml
- Pourcentage de survie par rapport au témoin cellules en milieu seul [11]: 100%
- DO/ml moyenne sur 4 puis ± écart type [12]: 1,010 ± 0,059 DO/ml
- Pourcentage de survie par rapport au témoin cellules en milieu seul [12]: 91%
- DO/ml moyenne sur 4 puis ± écart type [13]: 0,934 ± 0,050 DO/ml
- Pourcentage de survie par rapport au témoin cellules en milieu seul [13]: 84%
- DO/ml moyenne sur 4 puis ± écart type [14]: 1,051 ± 0,041 DO/ml
- Pourcentage de survie par rapport au témoin cellules en milieu seul [14]: 94%
- DO/ml moyenne sur 4 puis ± écart type [15]: 1,089 ± 0,051 DO/ml
- Pourcentage de survie par rapport au témoin cellules en milieu seul [15]: 98%
- DO/ml moyenne sur 4 puis ± écart type [16]: 0,970 ± 0,062 DO/ml
- Pourcentage de survie par rapport au témoin cellules en milieu seul [16]: 87%
- DO/ml moyenne sur 4 puis ± écart type [17]: 1,000 ± 0,089 DO/ml
- Pourcentage de survie par rapport au témoin cellules en milieu seul [17]: 90%
- DO/ml moyenne sur 4 puis ± écart type [18]: 0,991 ± 0,078 DO/ml
- Pourcentage de survie par rapport au témoin cellules en milieu seul [18]: 89%
- toxique jusqu'à la concentration de (conclusion of first toxicity experiment (Tableaux III, IV), toxic down to this concentration): ≥ 5 x 10^-5%
- hautement toxique jusqu'à (conversion of 10^-5 %): ~100 nM
- hautement toxique jusqu'à (toxic down to this concentration): ≥ 10^-5%
